Where a name gives a salt, the structure may show the parent alone.
How the values were obtained:
[1] = Particle size by laser diffraction (Mastersizer 2000, Scirocco 2000 dry dispersion); assay type: physicochemical
Protocol: (§1) Particle size analysis by laser diffraction was conducted in a Malvern Mastersizer 2000 using a Scirocco 2000 dry dispersion unit.
Characterization and understanding of the particle and bulk properties of the API, the excipients, and blends were important in the development and manufacturing of pharmaceutical formulations and finished products. Size, shape, bulk density and flow properties of CIPRO, excipients (specifically fillers), and blends were characterized to assist in formulation development. The particle size of CIPRO and excipients were measured in the Scirocco 2000, dry powder dispersion unit of Mastersizer 2000 particle size analyzer (Malvern Instruments Ltd.). CIPRO or excipient was placed in the enclosed vibratory tray of Scirocco 2000. The Scirocco 2000 uses compressed air to transport and suspend the particles of the sample while they pass through the air cell. The vibratory tray of Scirocco 2000 was vibrated to feed the powder at the 50% feed rate setting. The powder was dispersed through the air cell at an air pressure of 2 bar. The Mastersizer 2000 reported volume-weighted particle sizes. The median size of fumed silica CAB-O-SIL® M-5P is about 14 nm.

[2] = Powder compressibility (FT4 Powder Rheometer); assay type: physicochemical
Protocol: (§2) The bulk density was measured using the conditioned bulk density test, performed before any other test in the FT4. Powder flow property was measured using the shear cell test. The compressibility of the powders under investigation was also measured. Bulk density is an important parameter for determining the amount of powder that can fit in space such as blender, hopper of a tablet press or a tablet die. The shear test yields various powder flow measurements including a flow coefficient. The flow function coefficient (FFC) is used as an indicator of the flowability of a powder and is defined as the ratio of the major principle stress to the unconfined yield strength. The FFC was obtained using a normal stress of 3 kPa. FFC values can be separated into different regimes: FFC<1, not flowing; 1<FFC<2, very cohesive; 2<FFC<4, cohesive; 4<FFC<10, easy flowing, and FFC>10, free-flowing. Powder compressibility was also measured. Compressibility is not a direct measurement of flowability; however a free-flowing powder usually has a low compressibility value. A compressibility value greater than 30% indicates poor powder flow.

[3] = Karl Fischer analysis of lattice water; assay type: physicochemical; settings: KF analysis of oven dried samples
Protocol: as §1
Furthermore, no significant loss of crystallinity can be observed from the baseline. The lattice water content can be quantified from KF analysis of the off-line oven dried samples collected at different times during the process. […] As expected, the cake contains approximately 19 wt % water at the start of the drying process, coming from the residual wash solvent that contains 20 vol % water (24 wt %), but diluted by the solid API. […] This value is in accordance with the observations from XRPD analysis, with the monohydrate salt of ciprofloxacin HCl having a 4.7 wt % stoichiometric water content. As the drying step progresses, the total water concentration in the cake decreases while the lattice water is maintained constant. With the USP specifications giving a target water content between 4.7 and 6.7 wt %, the obtained drug substance started meeting the specifications after 50 min of drying. This time coincides with the point at which the cake dry matter content was near 100%.

[4] = after 140 min of drying, 50° C., 0.5 bar
[5] = Shear cell test, flow function coefficient (FT4 Powder Rheometer); assay type: physicochemical
Protocol: as §2

[6] = processed CIPRO particles, Table 3
[7] = processed CIPRO particles, Table 3, Hydrochloride Monohydrate
[8] = Table 2 materials, volume-weighted, dry dispersion 2 bar

Row | Compound | Particle size d10 [1, 7] [μm] | Particle size d50 [1, 7] [μm] | Particle size d90 [1, 7] [μm] | Compressibility [2, 7] [%] | further results
1 | O=C(O)c1cn(C2CC2)c2cc(N3CCNCC3)c(F)cc2c1=O [CIPRO (Commercial, un-processed), Ciprofloxacin Hydrochloride Monohydrate] |  |  |  |  | Particle size d10 [1, 6]: 3.75 μm; Particle size d50 [1, 6]: 12.49 μm; Particle size d90 [1, 6]: 439.56 μm; Compressibility [2, 6]: 38.9%
2 | Cl.O.O=C(O)c1cn(C2CC2)c2cc(N3CCNCC3)c(F)cc2c1=O [CIPRO (US & Krups Grinder), Ciprofloxacin Hydrochloride Monohydrate] | 1.93 | 7.09 | 65.36 | 38.8 | 
3 | Cl.O.O=C(O)c1cn(C2CC2)c2cc(N3CCNCC3)c(F)cc2c1=O [CIPRO (US & Morter-Pastle), Ciprofloxacin Hydrochloride Monohydrate] | 3.01 | 8.67 | 24.02 | 43.6 | 
4 | Cl.O.O=C(O)c1cn(C2CC2)c2cc(N3CCNCC3)c(F)cc2c1=O [CIPRO (w/o US, Grinder designed at MIT), Ciprofloxacin Hydrochloride Monohydrate] | 2.82 | 14.45 | 169.73 |  | 
5 | Cl.O.O=C(O)c1cn(C2CC2)c2cc(N3CCNCC3)c(F)cc2c1=O [CIPRO (w/o US, Krups Grinder), Ciprofloxacin Hydrochloride Monohydrate] | 1.23 | 3.88 | 33.26 | 52.6 | Compressibility ([2]; processed CIPRO particles, Table 3, listed as CIPRO (w/o use of a Krups Grinder), Hydrochloride Monohydrate): 52.6%
6 | O=C(O)c1cn(C2CC2)c2cc(N3CCNCC3)c(F)cc2c1=O [Ciprofloxacin HCl (CIPRO), Ciprofloxacin Hydrochloride Monohydrate] |  |  |  |  | Lattice water content of the crystalline phase [3]: 6.2 wt %; Crystal structure after drying (XRPD) [4]: retained the original crystal structure
7 | Magnesium stearate |  |  |  |  | Particle size d10 [1, 8]: 2.76 μm; Particle size d50 [1, 8]: 6.86 μm; Particle size d90 [1, 8]: 15.10 μm; Compressibility ([2]; Table 2 materials): 38.97%; FFC (Flow function coefficient) ([5]; Table 2 materials, normal stress of 3 kPa): 5.18; Flowability by Schulze classification ([5]; based on FFC): flows easily

From patent US11911719B2, “Devices and methods for the integrated filtration, drying, and mechanical processing of active pharmaceutical ingredients” (Massachusetts Institute of Technology, priority 2019, dated 2024)
